Data as given in patent US12383607B2, “Topical composition for improved healing of open wounds” (Eleos Pharmaceuticals, Inc., priority 2017, dated 2025).

Tested on: wound
Assay: Patient wound healing study
Type: in vivo, human
Details: topical application directly in the wound
Source text: Thus, for example, a skin ailment could be treated using a disclosed composition as follows: • 1. Clean the skin ailment with soap and warm water, with either a wash cloth or gauze sponge. Cleaning may be lightly abrasive as the subject tolerates. Alternatively, the skin ailment can be cleaned with gauze, moistened with saline and hibiclens. Again, the cleaning may be lightly abrasive as the subject tolerates. • 2. Rinse the ailment thoroughly with warm water or saline so no soap residue remains. • 3. Apply the topical composition to a Q-Tip applicator and lightly cover the surface of the ailment with the composition. […] If eschar is present, apply the composition to the edge of the eschar and beneath the edge of the eschar. The composition need not be applied to the top of the eschar. • 4. Cover the ailment with dry gauze. Wrap and secure the gauze with Kling, Kerlex roll, or Ace wrap. The wrap should be loosely applied so as to secure the dressing but to not apply pressure to the ailment site. • 5. If there is surrounding dermatitis (redness), allow the area to dry (no wrap need be applied).
3. Summary of Patient Wound Healing Study
A summary of the results of a patient wound healing study are illustrated in Table 2 below. The average blood sugar (BS) change by age and class are shown in FIG. 2A and FIG. 2B, respectively. […]

Q: For insulin, which healing is on record?
A: The healing was “significantly enhances healing”.

Q: And the wound glucose level?
A: The wound glucose level was “decreases the wound glucose level”.
